Assay results taken from ChEMBL document CHEMBL1201862, “PubChem BioAssay data set” (2004).
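The compound was tested at five concentrations on cells cultured in 96-well plates, with a 48-hour exposure period. GI50 = concentration required for 50% inhibition of growth.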 Active and inactive are the calls of the source. Rule as the data show it: active = GI50 up to about 1.1 µM and inactive = higher.

What was measured:
Test in all cases: NCI anticancer screen, dose series, 48 h
BT-549 = tested on: BT-549
DLD-1 = tested on: DLD-1
HOP-18 = tested on: HOP-18
LXFL 529 = tested on: LXFL 529
M19-MEL = tested on: M19-MEL
SNB-78 = tested on: SNB-78
XF498 = tested on: XF498
DMS-273 = tested on: DMS-273

SMILES | GI50 (BT-549) | GI50 (DLD-1) | GI50 (HOP-18) | GI50 (LXFL 529) | GI50 (M19-MEL) | GI50 (SNB-78) | GI50 (XF498) | GI50 (DMS-273)
O=[N+]([O-])c1ccc(S(=O)(=O)Cc2ccccc2)c2nonc12 | 18.5 µM (inactive) |  |  |  |  |  |  | 
O=C1Oc2ccccc2N/C1=C/C(=O)c1ccc(Cl)cc1 | > 100 µM (inactive) |  |  |  |  |  |  | 
CN1CN(C(=O)N2CN(C)C(=O)N(C)C2)CN(C)C1=O |  | > 100 µM (inactive) | > 100 µM (inactive) | > 100 µM (inactive) | > 100 µM (inactive) | > 100 µM (inactive) | > 100 µM (inactive) | 
CNC(=O)Oc1ccc(-c2cn3cc(OC(=O)NC)ccc3n2)cc1 | > 100 µM (inactive) |  |  |  |  |  |  | 
C=CC[C@@]1(C(=O)OC)[C@H](Sc2ccccc2)C1(C)C | 46 µM (inactive) |  |  |  |  |  |  | 
Cc1cc(O)c2c(c1O)C(=O)C1=C(C2=O)C(=O)C2C(O)C1C1C(O)CC(O)=C3C(=O)c4c(O)cc(C)c(O)c4C(=O)C321 (centres undefined) | 3.66 µM (inactive) |  |  |  |  |  |  | 
Cc1coc2c1C(=O)C(=O)c1ccccc1-2 |  | 1.98 µM (inactive) | < 0.01 µM (active) | 0.403 µM (active) |  | 1.73 µM (inactive) |  | 1.54 µM (inactive)
O=C(NC(Cc1ccccc1)C(=O)CCl)OCc1ccccc1 (centres undefined) |  | 9.64 µM (inactive) | 11.7 µM (inactive) | 3.6 µM (inactive) | 13.7 µM (inactive) | 24.8 µM (inactive) |  | 5.02 µM (inactive)
OC(Cn1cncn1)(Cn1cncn1)c1ccc(Cl)cc1Cl |  | > 100 µM (inactive) | > 100 µM (inactive) | > 100 µM (inactive) | > 100 µM (inactive) | > 100 µM (inactive) |  | > 100 µM (inactive)
CSc1ccc(Nc2cc(=O)[nH]c(=O)[nH]2)cc1 | > 100 µM (inactive) |  |  |  |  |  |  | 
CCCCCCCCCCCC(=O)N(CCCCCCCCC)CC(O)C(O)C(OC1OC(CO)C(O)C(O)C1O)C(O)CO (centres undefined) | 19.4 µM (inactive) |  |  |  |  |  |  | 
COc1cccc(C2SCc3nc4ccccc4n32)c1 (centres undefined) |  | 88.1 µM (inactive) | > 100 µM (inactive) |  | 46.6 µM (inactive) | > 100 µM (inactive) |  | 39.1 µM (inactive)
CC(=O)OC1CC[C@@]2(C)C(=CC[C@@H]3[C@@H]2CC[C@]2(C)Nc4nn(S(C)(=O)=O)cc4C[C@@H]32)C1 (some centres undefined) | 20.3 µM (inactive) |  |  |  |  |  |  | 
COc1ccc(C2C3CCc4ccccc4C3=NN2S(=O)(=O)c2ccc(Cl)cc2)cc1 (centres undefined) | 44.7 µM (inactive) |  |  |  |  |  |  | 
Cn1c(-c2ccccc2)cc(-c2cccs2)c1-c1ccsc1 | > 100 µM (inactive) |  |  |  |  |  |  | 
C/C(CCN(C)C)=N\OC(=O)c1ccccc1 |  | > 100 µM (inactive) | 1.66 µM (inactive) | > 100 µM (inactive) | > 100 µM (inactive) | > 100 µM (inactive) |  | > 100 µM (inactive)
COC(=O)C1=C(O)C(C(=O)OC)[C@@]2(O)[C@@H](C(=O)OC)[C@H](C)[C@@H](C)[C@@H]1[C@@H]2C(=O)OC (some centres undefined) | 37.5 µM (inactive) |  |  |  |  |  |  | 
CC(C)(C)c1cc(C(CO)OCCOCCO)cc(C(C)(C)C)c1O (centres undefined) | > 100 µM (inactive) |  |  |  |  |  |  | 
CCOC(=O)CN1C(=O)c2c(NC(=O)C(=O)O)cccc2S1(=O)=O | > 100 µM (inactive) |  |  |  |  |  |  | 
COc1cc2c3c(c1OC)Oc1ccc(cc1)CC1c4c(cc(OC)c(OC)c4Oc4ccc(cc4)CC3N(C)CC2)CCN1C (centres undefined) |  | 29.2 µM (inactive) | 25.9 µM (inactive) | 20.6 µM (inactive) | 17.3 µM (inactive) |  |  | 15.3 µM (inactive)
CCOC(=O)C1=C(Nc2ccc(Cl)c(Cl)c2)OC/C1=N\NC(=O)Cc1ccccc1 |  | > 100 µM (inactive) | 87.7 µM (inactive) | > 100 µM (inactive) | > 100 µM (inactive) | > 100 µM (inactive) | > 100 µM (inactive) | > 100 µM (inactive)
COC1(OC)C2C=CC1C([C@](C)(N)CO)C2 (some centres undefined) | > 100 µM (inactive) |  |  |  |  |  |  | 
CCOP1(=O)CC(C)=C(Cl)C(OC)C1 (centres undefined) | > 100 µM (inactive) |  |  |  |  |  |  | 
CCCCCOc1ccc(/C=N\c2ccc(-c3ccc(/N=C\c4ccc(OCCCCC)cc4)c(OC)c3)cc2OC)cc1 |  | > 100 µM (inactive) | 24.3 µM (inactive) |  | > 100 µM (inactive) | > 84.9 µM (inactive) | > 100 µM (inactive) | > 100 µM (inactive)
Cc1ccc(C(=O)Nc2ncn(C3CC(O)C(CO)O3)c(=O)n2)cc1 (centres undefined) |  | > 100 µM (inactive) | > 68.2 µM (inactive) |  | > 100 µM (inactive) | > 65.5 µM (inactive) | > 100 µM (inactive) | > 100 µM (inactive)
O=C(/N=N/c1cc(Cl)ccc1Cl)NNc1cc(Cl)ccc1Cl | > 10 µM (inactive) |  |  |  |  |  |  | 
CC[C@@]1(O)C[C@H](OC2CC(N(C)C)C(OC3CC(O)C(OC4CC(O)C(O)C(C)O4)C(C)O3)C(C)O2)c2c(cc3c(c2O)C(=O)c2c(O)ccc(O)c2C3=O)[C@H]1C(=O)OC (some centres undefined) |  | 0.0328 µM (active) | 0.136 µM (active) |  | 0.0121 µM (active) | 0.0776 µM (active) | 0.0189 µM (active) | 0.0108 µM (active)
COC(OC)c1cc2c(cc1C=O)OCO2 |  | 34.9 µM (inactive) |  |  | > 100 µM (inactive) | > 100 µM (inactive) |  | > 100 µM (inactive)
